Results published in patent publication US8304447B2, “2-acylaminopropoanol-type glucosylceramide synthase inhibitors” (Genzyme Corporation, priority 2007, dated 2012).

Tested on: GM3
Test: GM3 Elisa assay
Format: cell-based
Conditions: Table 3 (IC 50 Values); B16-FO cells; read-out: IC50_uM_Mean
In short: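 Cellular GM3 ELISA: fixed cells probed with monoclonal anti-GM3 (NeuAc), HRP-conjugated anti-IgM and fluorogenic Quantablu substrate, read at Ex 325/Em 420. Cells were B16-FO, treated 2 days after a 6 h attachment on collagen-coated wells.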

Compound | IC50 [nM]
COc1ccc(C(=O)CCCCC(=O)N[C@H](CN2CCCC2)[C@H](O)c2ccc(OCCCOc3ccccc3)cc2)cc1 [Compound 433] | ≤ 100
CCCCOc1ccc([C@@H](O)[C@@H](CN2CCCC2)NC(=O)CCCCC(=O)c2ccc(OC)cc2)cc1 [Compound 434] | ≤ 100
COc1ccc(C(=O)CCCCC(=O)N[C@H](CN2CCCC2)[C@H](O)c2ccc(OCCCCC(C)C)cc2)cc1 [Compound 436] | ≤ 100
COc1ccc(C(=O)CCCCC(=O)N[C@H](CN2CCCC2)[C@H](O)c2ccc(OCCCOc3cccc(C)c3)cc2)cc1 [Compound 437] | ≤ 100
COc1ccc(C(=O)CCCCC(=O)N[C@H](CN2CCCC2)[C@H](O)c2ccc(OCCC(C)C)cc2)cc1 [Compound 438] | ≤ 100
CC[C@H](C)COc1ccc([C@@H](O)[C@@H](CN2CCCC2)NC(=O)CCCCC(=O)c2ccc(OC)cc2)cc1 [Compound 441] | ≤ 100
CC(C)Oc1ccc([C@@H](O)[C@@H](CN2CC[C@@H](F)C2)NC(=O)Cc2ccc(-c3ccc(Cl)cc3)cc2)cc1 [Compound 446] | ≤ 100
COc1ccc(OCCC(=O)N[C@H](CN2CC[C@H](O)C2)[C@H](O)c2ccc(OC(C)C)cc2)cc1 [Compound 447] | ≤ 100
COCCOc1ccc(C(=O)CCCC(=O)N[C@H](CN2CCCC2)[C@H](O)c2ccc3c(c2)OCCO3)cc1 [Compound 449] | ≤ 100
COCCOc1ccc(C(=O)CCCCC(=O)N[C@H](CN2CCCC2)[C@H](O)c2ccc3c(c2)OCCO3)cc1 [Compound 450] | ≤ 100
COCCOc1ccc(C(=O)CCCCC(=O)N[C@H](CN2CCCC2)[C@H](O)c2ccc(OC(C)C)cc2)cc1 [Compound 453] | ≤ 100
CCCCCCOc1ccc([C@@H](O)[C@@H](CN2CC[C@H](O)C2)NC(=O)CCOc2ccc(OC)cc2)cc1 [Compound 454] | ≤ 100
COCCOc1ccc(C(=O)CCCCC(=O)N[C@H](CN2CC[C@H](O)C2)[C@H](O)c2ccc(OCCCCF)cc2)cc1 [Compound 455] | ≤ 100
COc1ccc(C(=O)CCCCCC(=O)N[C@H](CNC2CCC2)[C@H](O)c2ccc3c(c2)OCCO3)cc1 [Compound 460] | 1000 to 3000
CCC(C)NC[C@@H](NC(=O)CCCCCC(=O)c1ccc(OC)cc1)C(O)c1ccc2c(c1)OCCO2 (some centres unmarked) [Compound 461] | 100 to 1000
COc1ccc(C(=O)CCCCCC(=O)N[C@H](CN(CC2CC2)CC2CC2)[C@H](O)c2ccc3c(c2)OCCO3)cc1 [Compound 464] | 3000 to 10000
COc1ccc(C(=O)CCCCCC(=O)N[C@H](CNC(C)C)C(O)c2ccc3c(c2)OCCO3)cc1 (some centres unmarked) [Compound 465] | 100 to 1000
COc1ccc(C(=O)CCCCCC(=O)N[C@H](CNCC(C)(C)C)[C@H](O)c2ccc3c(c2)OCCO3)cc1 [Compound 466] | 3000 to 10000

Compound | IC50 [nM]
CCCNC[C@@H](NC(=O)CCCCCC(=O)c1ccc(OC)cc1)C(O)c1ccc2c(c1)OCCO2 (some centres unmarked) [Compound 467] | 100 to 1000
COc1ccc(C(=O)CCCCCC(=O)N[C@@H](CN(C)C(C)C)[C@@H](O)c2ccc3c(c2)OCCO3)cc1 [Compound 468] | ≤ 100
O=C(CCCOc1ccc(F)cc1)N[C@@H](CN1C2CCC1CC2)C(O)c1ccc2c(c1)OCCO2 (some centres unmarked) [Compound 472] | 100 to 1000
O=C(CCOc1ccc(F)cc1)N[C@H](CN1C2CCC1CC2)[C@H](O)c1ccc2c(c1)OCCO2 [Compound 473] | ≤ 100
O=C(CCCC(=O)c1ccc(F)cc1)N[C@H](CN1C2CCC1CC2)[C@H](O)c1ccc2c(c1)OCCO2 [Compound 474] | 100 to 1000
O=C(CCCCCC(=O)c1ccc(F)cc1)N[C@H](CN1C2CCC1CC2)[C@H](O)c1ccc2c(c1)OCCO2 [Compound 475] | ≤ 100
O=C(CCCCC(=O)c1ccc(F)cc1)N[C@H](CN1C2CCC1CC2)[C@H](O)c1ccc2c(c1)OCCO2 [Compound 476] | 100 to 1000
CCCCCCCC(=O)N[C@H](CN1CCCC1)[C@H](O)c1ccc(CCOC)cc1 [Compound 478] | 100 to 1000
O=C(N[C@H](CO)[C@H](O)c1ccc(C(F)(F)F)cc1)OCc1ccccc1 [Compound 483] | 3000 to 10000
COc1ccc(C(=O)CCCCCC(=O)N[C@H](CN2CCCC2)[C@H](O)c2ccc(C(F)(F)F)cc2)cc1 [Compound 484] | 1000 to 3000
O=C(CCCN1Cc2ccccc2C1=O)N[C@H](CN1CCCC1)[C@H](O)c1ccc2c(c1)OCCO2 [Compound 485] | 3000 to 10000
O=C(Cc1ccc(OC(F)(F)F)cc1)N[C@H](CN1CCCC1)[C@H](O)c1ccc(C(F)(F)F)cc1 [Compound 487] | 3000 to 10000
COc1ccc(C(=O)CCCCC(=O)N[C@H](CN2CCCC2)[C@H](O)c2ccc(C(F)(F)F)cc2)cc1 [Compound 491] | 1000 to 3000
COc1ccc(OCCC(=O)N[C@H](CN2CCCC2)[C@H](O)c2ccc(Cl)s2)cc1 [Compound 493] | 1000 to 3000
COc1ccc(C(=O)CCCCC(=O)N[C@H](CN2CCCC2)[C@H](O)c2ccc(Cl)s2)cc1 [Compound 494] | 100 to 1000
COc1ccc(C(=O)CCCCC(=O)N[C@H](CN2CC[C@H](O)C2)[C@H](O)c2ccc(OCCCCF)cc2)cc1 [Compound 495] | ≤ 100
Cc1ccc(OCCC(=O)N[C@H](CN2CC[C@H](O)C2)[C@H](O)c2ccc(OCCCCF)cc2)cc1 [Compound 496] | ≤ 100

Other lines, results leading:

IC50 [nM] | Compound
≤ 100 | COc1ccc(C(=O)CCCCC(=O)N[C@H](CN2CCCC2)[C@H](O)c2ccc(OCCCOc3ccc(C)cc3)cc2)cc1 [Compound 430]
≤ 100 | COc1ccc(C(=O)CCCCC(=O)N[C@H](CN2CCCC2)[C@H](O)c2ccc(OCCCOc3ccc(F)cc3)cc2)cc1 [Compound 431]
≤ 100 | COc1ccc(C(=O)CCCCC(=O)N[C@H](CN2CCCC2)[C@H](O)c2ccc(OCCCC(F)(F)F)cc2)cc1 [Compound 432]
≤ 100 | COc1ccc(C(=O)CCCCC(=O)N[C@H](CN2CCCC2)[C@H](O)c2ccc(OCCCCF)cc2)cc1 [Compound 435]
100 to 1000 | COc1ccc(C(=O)CCCCC(=O)N[C@H](CN2CCCC2)[C@H](O)c2ccc(OC[C@H](C)CO)cc2)cc1 [Compound 439]
≤ 100 | COc1ccc(CCOc2ccc([C@@H](O)[C@@H](CN3CCCC3)NC(=O)CCCCC(=O)c3ccc(OC)cc3)cc2)cc1 [Compound 440]
≤ 100 | CCCCCCOc1ccc([C@@H](O)[C@@H](CN2CCCC2)NC(=O)CCCC(=O)c2ccc(OCCOC)cc2)cc1 [Compound 442]
≤ 100 | CCCCCCOc1ccc([C@@H](O)[C@@H](CN2CCCC2)NC(=O)CCCCC(=O)c2ccc(OCCOC)cc2)cc1 [Compound 443]
100 to 1000 | COc1ccc(C(=O)CCCC(=O)N[C@H](CN2CC[C@@H](F)C2)[C@H](O)c2ccc(OC(C)C)cc2)cc1 [Compound 444]
100 to 1000 | COc1ccc(OCCCC(=O)N[C@H](CN2CC[C@@H](F)C2)[C@H](O)c2ccc(OC(C)C)cc2)cc1 [Compound 445]
100 to 1000 | Cc1ccc(OCCC(=O)N[C@H](CN2CC[C@@H](F)C2)[C@H](O)c2ccc(OC(C)C)cc2)cc1 [Compound 448]
100 to 1000 | COCCOc1ccc(C(=O)CCCC(=O)N[C@H](CN2CCCC2)[C@H](O)c2ccc(OC(C)C)cc2)cc1 [Compound 451]
100 to 1000 | COc1ccc(OCCC(=O)N[C@H](CN2CC[C@@H](F)C2)[C@H](O)c2ccc(OC(C)C)cc2)cc1 [Compound 452]
≤ 100 | COCCCCCCCC(=O)N[C@H](CN1CC[C@H](O)C1)[C@H](O)c1ccc(OC(C)C)cc1 [Compound 456]
≤ 100 | COCCOc1ccc(C(=O)CCCC(=O)N[C@H](CN2CC[C@H](O)C2)[C@H](O)c2ccc(OCCCCF)cc2)cc1 [Compound 457]
3000 to 10000 | COc1ccc(C(=O)CCCCCC(=O)N[C@H](CNC2CCCCC2)[C@H](O)c2ccc3c(c2)OCCO3)cc1 [Compound 458]
3000 to 10000 | CCCCN(CCCC)C[C@@H](NC(=O)CCCCCC(=O)c1ccc(OC)cc1)C(O)c1ccc2c(c1)OCCO2 (some centres unmarked) [Compound 459]

IC50 [nM] | Compound
1000 to 3000 | CCCCNC[C@@H](NC(=O)CCCCCC(=O)c1ccc(OC)cc1)C(O)c1ccc2c(c1)OCCO2 (some centres unmarked) [Compound 462]
100 to 1000 | COc1ccc(C(=O)CCCCCC(=O)N[C@H](CNC2CCCC2)[C@H](O)c2ccc3c(c2)OCCO3)cc1 [Compound 463]
100 to 1000 | COc1ccc(C(=O)CCCCCC(=O)N[C@@H](CN(C)C)[C@@H](O)c2ccc3c(c2)OCCO3)cc1 [Compound 469]
100 to 1000 | CCCN(C)C[C@H](NC(=O)CCCCCC(=O)c1ccc(OC)cc1)[C@@H](O)c1ccc2c(c1)OCCO2 [Compound 470]
1000 to 3000 | COc1ccc(C(=O)CCCCCC(=O)N[C@H](CN2CCCC2)C(O)C2CCCCC2)cc1 (some centres unmarked) [Compound 471]
3000 to 10000 | COc1ccc(C(=O)CCCCCC(=O)N[C@@H](CO)C(O)c2ccc3c(c2)OCCO3)cc1 (some centres unmarked) [Compound 477]
≤ 100 | COCCc1ccc([C@@H](O)[C@@H](CN2CCCC2)NC(=O)CCCCCC(=O)c2ccc(OC)cc2)cc1 [Compound 479]
1000 to 3000 | COc1ccc(CCNC(=O)N[C@H](CN2CCCC2)[C@H](O)c2ccc3c(c2)OCCO3)cc1 [Compound 480]
3000 to 10000 | O=C(CCCCCNC(=O)C(F)(F)F)N[C@H](CN1CCCC1)[C@H](O)c1ccc2c(c1)OCCO2 [Compound 481]
3000 to 10000 | COc1ccc([C@@H](O)[C@@H](CO)NC(=O)OCc2ccccc2)cc1F [Compound 482]
1000 to 3000 | O=C(CCCCCN1Cc2ccccc2C1=O)N[C@H](CN1CCCC1)[C@H](O)c1ccc2c(c1)OCCO2 [Compound 486]
1000 to 3000 | CCCCCCCC(=O)N[C@H](CN1CCCC1)[C@H](O)c1ccc(C(F)(F)F)cc1 [Compound 488]
3000 to 10000 | COc1ccc(OCCC(=O)N[C@H](CN2CCCC2)[C@H](O)c2ccc(C(F)(F)F)cc2)cc1 [Compound 489]
3000 to 10000 | COc1ccc(C(=O)CCCC(=O)N[C@H](CN2CCCC2)[C@H](O)c2ccc(C(F)(F)F)cc2)cc1 [Compound 490]
3000 to 10000 | O=C(Cc1ccc(OC(F)(F)F)cc1)NC(CN1CCCC1)[C@H](O)c1ccc(Cl)s1 (some centres unmarked) [Compound 492]
≤ 100 | COc1ccc(C(=O)CCCCCC(=O)N[C@H](CN2CC[C@H](O)C2)[C@H](O)c2ccc(OCCCCF)cc2)cc1 [Compound 497]
